According to publication PMC5680178, “D-Cateslytin, a new antimicrobial peptide with therapeutic potential” (Scientific Reports, 2017):
Values after ≈ are worked out from the molar mass of the structure shown. Read-outs that look alike come from different tables or passages of the source. Non-standard residues stand in square brackets, D forms with d. Residues, ends and D or L forms follow the SMILES beside them. No end group written: not given here.

Experiments:
[1] = test system: Parvimonas micra (ATCC 33270); conditions: for FIC: MICcombination/MICalone; for FICI: sum of both FICs; for MIC (MIC alone): broth microdilution, Anaerobe Basal broth, 24 h, OD600, 100% inhibition, modified Gompertz function, biological replicates
Experimental: (§5) According to the European Committee on Antimicrobial Susceptibility Testing[20], the effect of a combination between two antibacterial compounds can be evaluated by their FICI (Fractional Inhibitory Concentration Index). The FICI consists of the sum of the FICs of both antibacterial agents: FIC index = FICantimicrobial + FICD-Ctl. For each compound, the FIC was determined as the ratio between the MIC of the compound in combination (MICcombination) and the MIC of the compound acting alone (MICalone). On the basis of their FIC index, each combination was categorized as synergistic (≤0.5), additive (>0.5 to 1), indifferent (>1 to <4) or antagonistic (≥4).
(§6) Microorganisms were cultured according to the manufacturer’s or the owner’s instructions in their respective media: Luria Bertani broth (Sigma) was used for E. coli strains, Mueller Hinton broth (Difco) for S. aureus strains and Anaerobe Basal broth (Oxoid) for F. nucleatum, P. intermedia and P. micra.
(§7) The MIC was determined by broth microdilution. An overnight culture of each bacterial strain was diluted (approximately to OD600 = 0,001) and microorganisms were plated in 96-well plates in the presence of different concentrations of antimicrobials, D-Ctl or L-Ctl alone or in combination. Three technical replicates were performed for each condition. After 24 hours of incubation, the microorganism growth was assessed by optical density OD600 using a Multiskan™ EX microplate spectrophotometer (Thermo Fisher Scientific). […] Each experiment was performed with at least three biological replicates.

[2] = test system: Parvimonas micra (ATCC 33270); assay: microbe, parasite or virus in culture; conditions: ATCC33270, 24 h, read-out: MIC (MIC alone)
Experimental: as §5, §6, §7

[3] = test system: Fusobacterium nucleatum (ATCC 49256); assay: microbe, parasite or virus in culture; conditions: ATCC49256, 24 h, read-out: MIC (MIC alone)
Experimental: as §5, §6, §7

[4] = test system: Prevotella intermedia (ATCC 49046); conditions: for FICI: sum of both FICs; for MIC (MIC alone): ATCC 49046, 24 h
Experimental: as §5, §6, §7

[5] = test system: Prevotella intermedia (ATCC 49046); assay: microbe, parasite or virus in culture; conditions: ATCC49046, 24 h, read-out: MIC (MIC alone)
Experimental: as §5, §6, §7

[6] = test system: Fusobacterium nucleatum (ATCC 49256); conditions: for FICI: sum of both FICs; for MIC (MIC alone): ATCC 49256, 24 h
Experimental: as §5, §6, §7

[7] = test system: Escherichia coli (ATCC 25922); assay: microbe, parasite or virus in culture; format: cell-based
Experimental: (§1) The MIC was determined by broth microdilution. […] Three technical replicates were performed for each condition.

[8] = test system: E. coli (ATCC 25922) wild type; conditions: cultured with ½ MIC of the agent, diluted daily, for 24 days; value at day 24; three technical replicates
Experimental: An E. coli (ATCC® 25922™) culture was sequentially diluted every day in the presence of the different antibacterial compounds: D-Ctl, ampicillin or cefotaxime at ½ MIC during 24 days. The changes in the MICs values were determined as previously described by broth microdilution at the indicated times. The experiment was performed with three technical replicates.

[9] = test system: Escherichia coli (MDR) (K-12); conditions: for FIC: MICcombination/MICalone; for FICI: sum of both FICs; for MIC (MIC alone): broth microdilution, Luria Bertani broth, 24 h, OD600, lowest concentration inhibiting 100% of inoculum, modified Gompertz function, biological replicates
Experimental: as §5, §6, §7

[10] = test system: Escherichia coli (MDR) (K-12); assay: microbe, parasite or virus in culture; conditions: 24 h, read-out: MIC (MIC alone)
Experimental: as §5, §6, §7

[11] = test system: secreted proteases from F. nucleatum; conditions: 400 μL filtered culture supernatant of F. nucleatum, 37 °C, 24 hours; RP-HPLC C18, 214 nm, versus peptide in water
Experimental: (§2) Bacterial supernatant was prepared as follows: a single colony of each strain was resuspended in 5 mL of culture medium as indicated above and incubated at 37 °C overnight. The culture was then centrifuged at 10000 g for 1 min and the supernatant was filtered using a […] MillexH-GV (Millipore, Carrigtwohill, Ireland). An aliquot of each supernatant was incubated at 37 °C for 48 hours. Absence of growth was interpreted as lack of viable microorganism. 400 μL of supernatant was then incubated with or without each peptide of interest at 37 °C for 24 hours. As a control, each peptide was incubated in water at 37 °C for 24 hours. Samples were then separated using a Dionex HPLC system (Ultimate 3000; Sunnyvale, CA USA) on a Nucleosil reverse-phase 300–5C18-column ([…]; particle size: […]; porosity, 300 Å) (Macherey Nagel, Hoerdt, France). Absorbance was monitored at 214 nm and the solvent system consisted of 0.1% (v/v) TFA in water (solvent A) and 0.09% (v/v) TFA in 70% (v/v) acetonitrile-water (solvent B). Elution was performed at a flow rate of […] with a gradient of solvent B as indicated on the chromatograms.

[12] = test system: secreted proteases from P. intermedia; conditions: 400 μL filtered culture supernatant of P. intermedia, 37 °C, 24 hours; RP-HPLC C18, 214 nm, versus peptide in water
Experimental: as §2

[13] = test system: secreted proteases from E. coli MDR; conditions: 400 μL filtered culture supernatant of E. coli MDR, 37 °C, 24 hours; RP-HPLC C18, 214 nm, versus peptide in water
Experimental: as §2

[14] = test system: secreted proteases from S. aureus methicillin resistant (MRSA); conditions: 400 μL filtered culture supernatant of MRSA, 37 °C, 24 hours; RP-HPLC C18, 214 nm, versus peptide in water
Experimental: as §2

[15] = test system: secreted proteases from E. coli wild type; conditions: 400 μL filtered culture supernatant of E. coli wild type, 37 °C, 24 hours; RP-HPLC C18, 214 nm, versus peptide in water
Experimental: as §2

[16] = test system: secreted proteases from S. aureus methicillin sensitive (MSSA); conditions: 400 μL filtered culture supernatant of MSSA, 37 °C, 24 hours; RP-HPLC C18, 214 nm, versus peptide in water
Experimental: as §2

[17] = test system: secreted proteases from P. micra; conditions: 400 μL filtered culture supernatant of P. micra, 37 °C, 24 hours; RP-HPLC C18, 214 nm, versus peptide in water
Experimental: as §2

[18] = test system: Staphylococcus aureus (MRSA) (S1); conditions: for FIC: MICcombination/MICalone; for FICI: sum of both FICs
Experimental: as §5, §6, §7

[19] = test system: Staphylococcus aureus (MSSA) (ATCC 25923); assay: microbe, parasite or virus in culture; conditions: for FIC: MICcombination/MICalone; for FICI: sum of both FICs
Experimental: as §1

[20] = test system: Staphylococcus aureus (MRSA) (S1); assay: microbe, parasite or virus in culture; conditions: 24 h, read-out: MIC (MIC alone)
Experimental: as §5, §6, §7

[21] = test system: V8; conditions: cited from earlier work
Source text: (§3) To this aim, different bacterial ...

[22] = test system: aureolysin; conditions: cited from earlier work
Source text: as §3

[23] = test system: epithelial cells, smooth muscle cells and T cells; conditions: cited from earlier work
Source text: In the last decade, there have been a few HDPs entering clinical trials, specifically cathelicidins and defensins natural peptides or derivatives such as LL-37, MBI-226 (studies NCT00211523, NCT00211497 and NCT00027248 for the prevention of central venous catheter-related bloodstream infections and acne) and PMX-30063 (study NCT01211470 for acute bacterial skin and skin-structure infection). However, the clinical and commercial development of these peptide-based drugs has some limitations such as high cost of production, susceptibility to proteases and cytotoxicity. For example, the human cath ...

[24] = test system: secreted proteases from S. aureus methicillin resistant (MRSA); conditions: supernatant of MRSA, previous study; cited from earlier work
Source text: (§4) Linear L-peptides with α-helical structures are usually susceptible to proteolysis. […] The specific spatial configurations of the cleavage sites for these enzymes are not present in D-peptides although these peptides might be cleaved by non-specific hydrolysis during enzymatic digestion. Subsequently, we assessed the sensitivity of D-Ctl to secreted bacterial proteases by HPLC. To this aim, different bacterial ...

[25] = test system: secreted proteases from S. aureus methicillin sensitive (MSSA); conditions: supernatant of MSSA, previous study; cited from earlier work
Source text: as §4

[26] = combination D-Ctl + amoxicillin
[27] = combination D-Ctl + amoxicillin, category by FIC index
[28] = combination D-Ctl + amoxicillin, MICcombination/MICalone
[29] = broth microdilution, Mueller Hinton broth, 24 h, OD600, 100% inhibition, modified Gompertz function, biological replicates
[30] = combination D-Ctl + methicillin

CC1(C)S[C@@H]2[C@H](NC(=O)[C@H](N)c3ccc(O)cc3)C(=O)N2[C@H]1C(=O)O [Amoxicillin]
FIC [1, 26]: 0.25
Effect [1, 27]: Synergistic
FICI [1, 26]: 0.5
MIC [2]: 0.5 µg/mL (≈ 1.37 µM)
MIC [3]: 0.6 µg/mL (≈ 1.64 µM)
FIC [4, 28]: 0.25
Effect [4, 27]: Synergistic
FICI [4, 26]: 0.5
MIC [5]: 0.5 µg/mL (≈ 1.37 µM)
FIC [6, 28]: 0.5
Effect [6, 27]: Additive
FICI [6, 26]: 1.0

CC1(C)S[C@@H]2[C@H](NC(=O)[C@H](N)c3ccccc3)C(=O)N2[C@H]1C(=O)O [Ampicillin]
MIC ([7]; Escherichia coli, ATCC25922, broth microdilution, Luria Bertani broth, 24 h, OD600, lowest concentration inhibiting 100% of inoculum, modified Gompertz function, biological replicates, read-out: MIC): 7 µg/mL (≈ 20 µM)
fold change in MIC under selective pressure [8]: 3 x MIC

CO/N=C(\C(=O)N[C@@H]1C(=O)N2C(C(=O)O)=C(COC(C)=O)CS[C@H]12)c1csc(N)n1 [Cefotaxime]
FIC ([9]; combination D-Ctl + cefotaxime): 0.5
Effect ([9]; combination D-Ctl + cefotaxime, category by FIC index): Additive
FICI ([9]; combination D-Ctl + cefotaxime): 1.0
fold change in MIC under selective pressure [8]: 3 x MIC
MIC [10]: 0.1 µg/mL (≈ 0.22 µM)

CSCC[C@@H](NC(=O)[C@@H](CO)NC(=O)[C@H](N)CCCNC(=N)N)C(=O)N[C@H](CCCNC(=N)N)C(=O)N[C@H](CC(C)C)C(=O)N[C@H](CO)C(=O)N[C@H](Cc1ccccc1)C(=O)N[C@H](CCCNC(=N)N)C(=O)N[C@H](C)C(=O)N[C@H](CCCNC(=N)N)C(=O)NCC(=O)N[C@H](Cc1ccc(O)cc1)C(=O)NCC(=O)N[C@H](Cc1ccccc1)C(=O)N[C@H](CCCNC(=N)N)C(=O)O [D-Ctl, D-Cateslytin] (H-[dR][dS][dM][dR][dL][dS][dF][dR][dA][dR]G[dY]G[dF][dR]-OH)
MIC (MIC alone) [1]: 23 µg/mL (≈ 12.4 µM)
FIC [1, 26]: 0.25
FICI [1, 26]: 0.5
stability in bacterial supernatant [11]: not degraded
stability in bacterial supernatant [12]: not degraded
stability in bacterial supernatant [13]: not degraded
stability in bacterial supernatant [14]: not degraded
stability in bacterial supernatant [15]: not degraded
stability in bacterial supernatant [16]: not degraded
stability in bacterial supernatant [17]: not degraded
MIC (MIC alone) [18, 29]: 18 µg/mL (≈ 9.68 µM)
FIC ([18]; combination D-Ctl + vancomycin): 1
FICI ([18]; combination D-Ctl + vancomycin): 2
MIC ([7]; ATCC 25922, 24 h): 8.0 µg/mL (≈ 4.3 µM)
MIC (MIC alone) [19, 29]: 24 µg/mL (≈ 12.9 µM)
FIC [19, 30]: 0.5
FICI [19, 30]: 0.75
MIC (MIC alone) [9]: 8.4 µg/mL (≈ 4.52 µM)
FIC ([9]; combination D-Ctl + cefotaxime): 0.5
FICI ([9]; combination D-Ctl + cefotaxime): 1.0
MIC (MIC alone) [4]: 10 µg/mL (≈ 5.38 µM)
FICI [4, 26]: 0.5
MIC (MIC alone) [6]: 22 µg/mL (≈ 11.8 µM)
FICI [6, 26]: 1.0

NC[C@H]1O[C@H](O[C@H]2[C@H](O)[C@@H](O[C@H]3O[C@H](CO)[C@@H](O)[C@H](N)[C@H]3O)[C@H](N)C[C@@H]2N)[C@H](O)[C@@H](O)[C@@H]1O [Kanamycin]
MIC ([7]; broth microdilution, Luria Bertani broth, 24 h, OD600, lowest concentration inhibiting 100% of inoculum, modified Gompertz function, biological replicates): 21.6 µg/mL (≈ 44.6 µM)

COc1cccc(OC)c1C(=O)N[C@@H]1C(=O)N2[C@@H]1SC(C)(C)[C@@H]2C(=O)O [Methicillin]
MIC ([19]; Staphylococcus aureus, 24 h, read-out: MIC (MIC alone)): 1.2 µg/mL (≈ 3.15 µM)
FIC [19, 30]: 0.25
MIC combination ([19]; combination D-Ctl + methicillin, broth microdilution, at least in duplicate): 0.3 µg/mL
Effect ([19]; combination D-Ctl + methicillin, category by FIC index): Additive
FICI [19, 30]: 0.75

CN[C@H](CC(C)C)C(=O)N[C@H]1C(=O)N[C@@H](CC(N)=O)C(=O)N[C@H]2C(=O)N[C@H]3C(=O)N[C@H](C(=O)N[C@H](C(=O)O)c4cc(O)cc(O)c4-c4cc3ccc4O)[C@H](O)c3ccc(c(Cl)c3)Oc3cc2cc(c3O[C@@H]2O[C@H](CO)[C@@H](O)[C@H](O)[C@H]2O[C@H]2C[C@](C)(N)[C@H](O)[C@H](C)O2)Oc2ccc(cc2Cl)[C@H]1O [Vancomycin]
FIC ([18]; combination D-Ctl + vancomycin): 1
Effect ([18]; combination D-Ctl + vancomycin, category by FIC index): Indifferent
FICI ([18]; combination D-Ctl + vancomycin): 2
MIC [20]: 0.8 µg/mL (≈ 0.552 µM)

LL-37: human cathelicidin host defence peptide
proteolysis by secreted S. aureus protease [21]: cleavage
proteolysis by secreted S. aureus protease [22]: cleavage
level at which apoptosis is enhanced [23]: above 10 µM

RSMRLSFRARGYGFR [L-Ctl, L-Cateslytin]
MIC (MIC alone) [1]: 120 µg/mL
stability in bacterial supernatant [11]: resistant to the degradation
stability in bacterial supernatant [12]: resistant to the degradation
stability in bacterial supernatant [13]: degraded
stability in bacterial supernatant [15]: degraded
stability in bacterial supernatant [17]: resistant to the degradation
MIC ([7]; ATCC 25922, 24 h): 75 µg/mL
stability in bacterial supernatant [24]: stable
stability in bacterial supernatant [25]: stable
MIC (MIC alone) [9]: 150 µg/mL
MIC (MIC alone) [4]: 149 µg/mL
MIC (MIC alone) [6]: 125 µg/mL
